Where a SMILES comes first, the peptide text is derived from it. Where no end group is shown, it is not given here.

T1 sequence (P01375 77-233 limits assumed): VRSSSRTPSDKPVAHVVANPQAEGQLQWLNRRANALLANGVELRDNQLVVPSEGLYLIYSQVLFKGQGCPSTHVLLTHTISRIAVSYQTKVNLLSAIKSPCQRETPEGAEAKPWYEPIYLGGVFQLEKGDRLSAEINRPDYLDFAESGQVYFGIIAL

The first assay concerns the target T1, human TNFα (Homo sapiens, UniProt P01375).
T1 construct: purchased Biosource, Camarillo, Calif
Briefly: p55 Receptor/IgG Fusion Protein Binding Assay (inhibition of TNFα capture by p55-Ig coated plate). The settings on record: peptide 1 mM; TNFα 25 ng/ml. The method, then:
This assay was designed to identify peptides which bind to human TNFα and thereby prevent the capture of the TNFα by a microtiter plate coated with p55-Ig fusion protein. A constant concentration of human TNFα is preincubated with the test peptide and then incubated on the p55-Ig coated microtiter wells. Bound TNFα is detected using a specific antisera and an alkaline phosphatase-conjugated probe.
A 96-well, U-bottom polyvinylchloride microtiter plate was coated with 50 μl/well of p55-Ig fusion protein at 5 μg/ml in 0.01M sodium phosphate, 0.15M sodium chloride (PBS) by incubation overnight at 4° C. or 2 hours at 37° C. The fusion protein, which consists of a p55 TNF receptor protein portion and an IgG portion, can be produced as disclosed in U.S. application Ser. No. 08/010,406 filed Jan. 29, 1993 which is incorporated herein by reference. The plate was washed three times with 0.05% Tween-20 in PBS, then blocked, by adding 150 μl/well of assay buffer (10 mM N-2-hydroxyethylpiperazine-N'-[…] (HEPES) pH 7.2, containing 0.1% porcine gelatin, 0.1% Tween-80, and 0.01% sodium azide) and continuing incubation for 1 hour at 37° C. or at 4° C. for 1-7 days.
Lyophilized peptides to be tested were weighed in tared 12×75 mm polystyrene tubes and reconstituted to a concentration of 1.2 mM with assay buffer. Each suspension was sonicated in a water bath for 1-5 minutes and vortexed 15-30 seconds to disperse large particles. Serial dilutions of each peptide suspension were prepared using assay buffer in a 96-well polystyrene microtiter plate. Additional wells received Fab fragment of the mouse/human monoclonal anti-human TNFα antibody cA2 (positive control) or assay buffer (negative control). […] The polystyrene dilution plate was then sealed and incubated 1 hour at room temperature on an orbital mixer set at moderate speed.
Following the sample preincubation, blocker was discarded from the p55-Ig coated plate and blotted dry. Aliquots (50 μl) of each peptide or control were transferred into duplicate wells on the p55-Ig coated plate which was then sealed and incubated i hour at 37° C. Duplicate wells containing only assay buffer were included as a plate blank. After incubation the p55-Ig plate was washed three times with 0.05% Tween-20 in PBS.
To detect TNFα captured by the p55-Ig plate, all wells were incubated in succession with polyclonal rabbit anti-human TNFα (Genzyme, Boston, Mass.; 1:500 in assay buffer, 50 μl/well), biotinylated goat anti-rabbit Ig (H&L) (Vector Laboratories, Burlingame, Calif.; 1 μg/ml in assay buffer, 50 μl/well) and streptavidin-alkaline phosphatase conjugate (Pierce, Rockford, Ill.; 1 μg/ml in assay buffer, 50 μl/well). All incubations were for 1 hour at 37° C. and after each incubation the plate was washed three times with 0.05% Tween-20 in PBS. Fifty microliters of alkaline phosphatase substrate solution (alkaline buffer (Sigma, St. Louis, Mo.) diluted 1:500 in deionized water plus one 5 mg tablet of p-nitrophenyl phosphate (Sigma, St. Louis, Mo.) per 5 ml of diluted buffer) was added to all wells and incubation continued for 20 minutes at room temperature. Color development was stopped by adding to all wells 50 μl of 3N sodium hydroxide. The optical density (OD) at 405 nm was measured on a microtiter plate reader (Molecular Devices Vmax plate reader), with the plate blank wells subtracted as background. The activity of each peptide was then expressed as the percent inhibition of TNFα capture by the p55-Ig plate, relative to the amount of TNFα captured in wells containing only assay buffer (negative control), as follows: % inhibition=100-((mean OD peptide/mean OD negative control)×100).
The inhibition of binding of TNFα to p55TNFr-IgG chimeric construct was performed as described above using several embodiments of the invention. The peptides were tested at a concentration of 1 mM.
For the compound “SEQ ID NO:52: peptide of the invention that inhibits TNFα; sequence not printed (ASRDAVATSTSPTRS)”, the “inhibition of binding of TNFα to p55TNFr-IgG chimeric construct” value (“inhibition of binding of TNFα” for short) worked out at 63%.

As for “SEQ ID NO:46: peptide of the invention that inhibits TNFα; sequence not printed (SNTTSSTDIARPHQI)”, the “inhibition of binding of TNFα” value is 66%.

“SEQ ID NO:51: peptide of the invention that inhibits TNFα; sequence not printed (PGNASRDAVATSTSP)”: the “inhibition of binding of TNFα” value is listed as 68%.

Turning to “SEQ ID NO:45: peptide of the invention that inhibits TNFα; sequence not printed (GTFSNTTSSTDIARP; also: C-terminal blocking group)”, the “inhibition of binding of TNFα” value is reported as 73%.

For the compound “SEQ ID NO:36: peptide of the invention that inhibits TNFα; sequence not printed (SAEDSTYTQLWNWVP)”, the “inhibition of binding of TNFα” value stood at 77%.

With “SEQ ID NO:49: peptide of the invention that inhibits TNFα; sequence not printed (ARPHQIANVVAIPGN)”, the “inhibition of binding of TNFα” value is recorded as 26%.

“SEQ ID NO:34: peptide of the invention that inhibits TNFα; sequence not printed (SDTVADSAEDSTYTQ)”: the “inhibition of binding of TNFα” value is reported as 65%.

Still in this assay, the particulars now being: peptide 1 mM; TNFα 25 ng/ml; read-out: inhibition of binding of TNFα to p55TNFr-IgG chimeric construct.
Consider `C[C@H](NC(=O)[C@@H](NC(=O)[C@H](Cc1ccccc1)NC(=O)[C@H](CO)NC(=O)CNC(=O)[C@H](CO)NC(=O)[C@H](CCC(=O)O)NC(=O)[C@H](C)NC(=O)[C@H](CCC(=O)O)NC(=O)[C@H](CCCNC(=N)N)NC(=O)[C@H](C)NC(=O)[C@H](CC(=O)O)NC(=O)[C@@H](NC(=O)[C@H](CC(=O)O)NC(=O)[C@@H](N)CCC(N)=O)[C@@H](C)O)[C@@H](C)O)C(N)=O` [SEQ ID NO:4, Glutaminyl-aspartyl-threonyl-aspartyl-alanyl-arginyl-glutamyl-alanyl-glutamyl-seryl-glycyl-seryl-phenylalanyl-threonyl-alanine Amide] (H-QDTDAREAESGSFTA-NH2), for which the inhibition at 1000 µM was 53%.

With `CSCC[C@H](NC(=O)[C@@H]1CCCN1C(=O)[C@H](CC(C)C)NC(=O)[C@H](CC(C)C)NC(=O)[C@H](Cc1ccccc1)NC(=O)[C@H](CO)NC(=O)[C@@H](NC(=O)[C@H](CO)NC(=O)[C@@H]1CCCN1C(=O)[C@H](C)N)[C@@H](C)O)C(=O)NCC(=O)N1CCC[C@H]1C(=O)N[C@@H](CO)C(=O)N1CCC[C@H]1C(=O)N1CCC[C@H]1C(N)=O` [SEQ ID NO:62] (H-APSTSFLLPMGPSPP-NH2), the inhibition at 1000 µM was 62%.

On to `CC(C)C[C@H](N)C(=O)N[C@@H](Cc1ccc(O)cc1)C(=O)N[C@@H](CC(N)=O)C(=O)N[C@@H](CC(=O)O)C(=O)N[C@@H](C)C(=O)N1CCC[C@H]1C(=O)NCC(=O)N1CCC[C@H]1C(=O)NCC(=O)N[C@@H](CCC(N)=O)C(=O)N[C@@H](CC(=O)O)C(=O)N[C@H](C(=O)N[C@@H](CC(=O)O)C(=O)N[C@@H](C)C(=O)N[C@@H](CCCNC(=N)N)C(N)=O)[C@@H](C)O` [SEQ ID NO:1, Leucyl-tyrosyl-asparaginyl-aspartyl-alanyl-prolyl-glycyl-prolyl-glycyl-glutaminyl-aspartyl-threonyl-aspartyl-alanyl-arginine Amide] (H-LYNDAPGPGQDTDAR-NH2), for which the inhibition at 1000 µM was determined as 46%.

Consider `CSCC[C@H](NC(=O)[C@H](CCC(N)=O)NC(=O)[C@H](C)NC(=O)[C@@H](NC(=O)[C@H](CCC(N)=O)NC(=O)[C@H](CC(=O)O)NC(=O)[C@H](Cc1ccc(O)cc1)NC(=O)[C@H](Cc1ccc(O)cc1)NC(=O)[C@H](CCC(=O)O)NC(=O)[C@H](CCCNC(=N)N)NC(=O)[C@H](CC(C)C)NC(=O)[C@@H](N)CCCNC(=N)N)[C@@H](C)O)C(=O)N[C@@H](C)C(=O)N[C@@H](C)C(=O)N[C@@H](CO)C(N)=O` [SEQ ID NO:29] (H-RLREYYDQTAQMAAS-NH2), for which the inhibition at 1000 µM turned out to be 53%.

Take `C[C@H](NC(=O)[C@H](CCC(=O)O)NC(=O)[C@H](CCCNC(=N)N)NC(=O)[C@H](C)NC(=O)[C@H](CC(=O)O)NC(=O)[C@@H](NC(=O)[C@H](CC(=O)O)NC(=O)[C@H](CCC(N)=O)NC(=O)CNC(=O)[C@@H]1CCCN1C(=O)CNC(=O)[C@@H]1CCCN1C(=O)[C@H](C)NC(=O)[C@@H](N)CC(=O)O)[C@@H](C)O)C(=O)N[C@@H](CCC(=O)O)C(N)=O` [SEQ ID NO:2] (H-DAPGPGQDTDAREAE-NH2): the inhibition at 1000 µM was 62%.

As for `C[C@H](NC(=O)[C@@H](NC(=O)[C@H](CO)NC(=O)[C@@H]1CCCN1C(=O)[C@H](CCC(=O)O)NC(=O)[C@@H]1CCCN1C(=O)[C@@H](NC(=O)[C@@H]1CCCN1C(=O)[C@H](CCC(N)=O)NC(=O)[C@@H](NC(=O)[C@H](Cc1c[nH]cn1)NC(=O)[C@H](CCC(N)=O)NC(=O)[C@@H](N)CO)[C@@H](C)O)[C@@H](C)O)[C@@H](C)O)C(=O)N1CCC[C@H]1C(=O)N[C@@H](CO)C(N)=O` [SEQ ID NO:58] (H-SQHTQPTPEPSTAPS-NH2), the inhibition at 1000 µM was determined as 72%.

Consider `CC(C)C[C@H](NC(=O)[C@H](CCCNC(=N)N)NC(=O)[C@H](C)NC(=O)[C@@H](NC(=O)[C@H](CO)NC(=O)CNC(=O)[C@@H]1CCCN1C(=O)[C@H](CCC(=O)O)NC(=O)[C@@H]1CCCN1C(=O)[C@H](C)NC(=O)[C@H](Cc1ccc(O)cc1)NC(=O)[C@@H]1CCCN1C(=O)[C@@H](NC(=O)[C@@H](N)Cc1ccccc1)[C@@H](C)O)[C@@H](C)O)C(=O)N[C@@H](CCCNC(=N)N)C(N)=O` [SEQ ID NO:25] (H-FTPYAPEPGSTARLR-NH2), for which the inhibition at 1000 µM is 69%.

For the compound `CC[C@H](C)[C@H](NC(=O)[C@H](CCC(N)=O)NC(=O)[C@@H]1CCCN1C(=O)[C@H](CC(C)C)NC(=O)[C@H](C)NC(=O)[C@H](CC(C)C)NC(=O)[C@H](CCCCN)NC(=O)[C@@H](NC(=O)[C@H](C)NC(=O)[C@H](CCC(=O)O)NC(=O)[C@H](CC(C)C)NC(=O)[C@@H](N)CO)[C@@H](C)O)C(=O)N[C@@H](CCC(=O)O)C(=O)N[C@@H](CC(N)=O)C(=O)N[C@H](C(N)=O)C(C)C` [SEQ ID NO:21, Seryl-leucyl-glutamyl-alanyl-threonyl-lysyl-leucyl-alanyl-leucyl-prolyl-glutaminyl-isoleucyl-glutamyl-asparaginyl-valine Amide] (H-SLEATKLALPQIENV-NH2), the inhibition at 1000 µM amounted to 50%.

As to `CC(C)C[C@H](NC(=O)[C@H](Cc1ccccc1)NC(=O)[C@H](Cc1ccccc1)NC(=O)CNC(=O)[C@H](C)NC(=O)[C@H](Cc1c[nH]cn1)NC(=O)[C@H](C)NC(=O)[C@@H](N)[C@@H](C)O)C(=O)N[C@@H](CCCNC(=N)N)C(=O)N[C@@H](CCC(=O)O)C(=O)N[C@@H](CC(N)=O)C(=O)N[C@@H](CCC(=O)O)C(=O)N[C@@H](C)C(=O)N[C@H](C(=O)N[C@@H](CO)C(N)=O)C(C)C` [SEQ ID NO:18] (H-TAHAGFFLRENEAVS-NH2), the inhibition at 1000 µM was found to be 68%.

As to `C[C@H](NC(=O)[C@H](CCC(=O)O)NC(=O)[C@H](CCCNC(=N)N)NC(=O)[C@H](C)NC(=O)[C@H](CC(=O)O)NC(=O)[C@@H](NC(=O)[C@H](CC(=O)O)NC(=O)[C@H](CCC(N)=O)NC(=O)CNC(=O)[C@@H]1CCCN1C(=O)CN)[C@@H](C)O)C(=O)N[C@@H](CCC(=O)O)C(=O)N[C@@H](CO)C(=O)NCC(=O)N[C@@H](CO)C(N)=O` [SEQ ID NO:3, Glycyl-prolyl-glycyl-glutaminyl-aspartyl-threonyl-aspartyl-alanyl-arginyl-glutamyl-alanyl-glutamyl-seryl-glycyl-serine Amide] (H-GPGQDTDAREAESGS-NH2), the inhibition at 1000 µM was 53%.

The assay is the same for the next values; noted with them: various concentrations of peptide.
Consider “SEQ ID NO:45: peptide of the invention that inhibits TNFα; sequence not printed (GTFSNTTSSTDIARP; also: C-terminal blocking group)”, for which the “dose dependent inhibition of TNFα (FIG. 1)” value is “dose dependent inhibition”.

Source of the values: patent publication US5486595A, “Tumor necrosis factor inhibitors” (Centecor, Inc., priority 1994, dated 1996).
